Reference: patent US9730445B2, “Herbicidal compositions comprising 4-amino-3-chloro-5-fluoro-6-(4-chloro-2-fluoro-3-methoxyphenyl) pyridine-2-carboxylic acid or a derivative thereof and fungicides” (DOW AGROSCIENCES LLC, priority 2013, dated 2017)

Legend:
CYPES = experiment: Postemergence foliar-applied weed control, direct-seeded rice (greenhouse); format: in vivo, Cyperus esculentus L. (yellow nutsedge); conditions: r45 ester 8 g ae/ha alone, r46-48 kasugamycin 17.5/35/70 g ai/ha alone, r49-51 ester 8 + 17.5/35/70
Protocol: (§1) Seeds or nutlets of the desired test plant species were planted in a soil matrix prepared by mixing aloam or sandy loam soil (e.g., 28.6 percent silt, 18.8 percent clay, and 52.6 percent sand, with a pH of about 5.8 and an organic matter content of about 1.8 percent) and calcareous grit in an 80 to 20 ratio. The soil matrix was contained in plastic pots with a volume of 1 quart and a surface area of 83.6 square centimeters (cm^2). […] The plants were grown for 8-22 days in a greenhouse with an approximate 14 hour (h) photoperiod which was maintained at about 29° C. during the day and 26° C. during the night. Nutrients (Peters Excel® 15-5-15 5-Ca 2-Mg and iron chelate) were applied in the irrigation solution as needed and water was added on a regular basis. Supplemental lighting was provided with overhead metal halide 1000-Watt lamps as necessary. The plants were employed for testing when they reached the first through fourth true leaf stage.
(§2) Treatments consisted of the acid or esters of 4-amino-3-chloro-5-fluoro-6-(4-chloro-2-fluoro-3-methoxy-phenyl)pyridine-2-carboxylic acid (Compound A), each formulated as an SC (suspension concentrate), and various fungicidal components alone and in combination. Forms of compound A were applied on an acid equivalent basis.
(§3) For treatments comprised of formulated compounds, measured amounts of compounds were placed individually in 25 mL glass vials and diluted in a volume of 1.25% volume per volume (v/v) Agri-Dex® crop oil concentrate to obtain 12× stock solutions. […] Application solutions were prepared by adding an appropriate amount of each stock solution (e.g., 1 mL) and diluted to the appropriate final concentrations with the addition of […] of an aqueous mixture of 1.25% (v/v) crop oil concentrate so that the final spray solutions contained 1.25+/−0.05% (v/v) crop oil concentrate.
(§4) For treatments comprised of technical compounds, weighed amounts can be placed individually in 25 mL glass vials and dissolved in a volume of 97:3 volume per volume (v/v) acetone/dimethyl sulfoxide (DMSO) to obtain 12× stock solutions. […] When technical materials are used, the concentrated stock solutions can be added to the spray solutions so that the final acetone and DMSO concentrations of the application solutions are 16.2% and 0.5%, respectively.
(§5) As required, additional water and/or 97:3 v/v acetone/DMSO was added to individual application solutions so that the final acetone and DMSO concentrations of the application solutions being compared were 8.1% and 0.25%, respectively
(§6) All stock solutions and applications solutions were visually inspected for compound compatibility prior to application. Spray solutions were applied to the plant material with an overhead Mandel track sprayer equipped with 8002E nozzles calibrated to deliver 187 L/ha over an application area of 0.503 square meters (m^2) at a spray height of 18 to 20 inches (46 to 50 cm) above average plant canopy height. Control plants were sprayed in the same manner with the solvent blank.
(§7) The treated plants and control plants were placed in a greenhouse as described above and watered by sub-irrigation to prevent wash-off of the test compounds. After approximately 3 weeks, the condition of the test plants as compared with that of the untreated plants was determined visually and scored on a scale of 0 to 100 percent where 0 corresponds to no injury or growth inhibition and 100 corresponds to complete kill. […]

ECHOR = experiment: as above; format: in vivo, Echinochloa oryzoides (Ard.) Fritsch (early watergrass); conditions: r9-11 ester 8/16/32 g ae/ha alone, r12-14 kasugamycin 17.5/35/70 g ai/ha alone, r15-23 ester 8/16/32 at each of 17.5, 35, 70
Protocol: as §1, §2
For treatments comprised of formulated compounds, measured amounts of compounds were placed individually in 25 mL glass vials and diluted in a volume of 1.25% volume per volume (v/v) Agri-Dex® crop oil concentrate to obtain 12× stock solutions. […]
as §7

CYPIR = experiment: as above; format: in vivo, Cyperus iria L. (rice flatsedge); conditions: 21 DAA, r29-30 ester 8/16 g ae/ha alone, r31-33 kasugamycin 17.5/35/70 g ai/ha alone, r34-39 ester 8/16 at each of 17.5, 35, 70
Protocol: as §1, §2, §3, §4, §5, §6
(§8) The treated plants and control plants were placed in a greenhouse as described above and watered by sub-irrigation to prevent wash-off of the test compounds. After approximately 3 weeks, the condition of the test plants as compared with that of the untreated plants was determined visually and scored on a scale of 0 to 100 percent where 0 corresponds to no injury or growth inhibition and 100 corresponds to complete kill.
(§9) Colby's equation was used to determine the herbicidal effects expected from the mixtures (Colby, S. R. Calculation of the synergistic and antagonistic response of herbicide combinations. Weeds 1967, 15, 20-22.).
(§10) The following equation was used to calculate the expected activity of mixtures containing two active ingredients, A and B: Expected=A+B−(A×B/100)

LEFCH [1] = experiment: as above; format: in vivo, Leptochloa chinensis (L.) Nees (Chinese sprangletop); conditions: 21 DAA, r9-11 ester 8/16/32 g ae/ha alone, r12-14 kasugamycin 17.5/35/70 g ai/ha alone, r15-23 ester 8/16/32 at each of 17.5, 35, 70
Protocol: as §1, §2, §3, §4, §5, §6, §8, §9, §10

IPOHE = experiment: as above; format: in vivo, Ipomoea hederacea (L.) Jacq. (ivyleaf morningglory); conditions: r9-11 ester 8/16/32 g ae/ha alone, r12-14 kasugamycin 17.5/35/70 g ai/ha alone, r15-23 ester 8/16/32 at each of 17.5, 35, 70
Protocol: as §1, §2, §3, §4, §5, §6, §8, §9, §10

DIGSA = experiment: as above; format: in vivo, Digitaria sanguinalis (L.) Scop. (large crabgrass); conditions: 21 DAA, r9-11 ester 8/16/32 g ae/ha alone, r12-14 kasugamycin 17.5/35/70 g ai/ha alone, r15-23 ester 8/16/32 at each of 17.5, 35, 70
Source text: Seeds or nutlets of the desired test plant species were planted in a soil matrix prepared by mixing aloam or sandy loam soil (e.g., 28.6 percent silt, 18.8 percent clay, and 52.6 percent sand, with a pH of about 5.8 and an organic matter content of about 1.8 percent) and calcareous grit in an 80 to 20 ratio. The soil matrix was contained in plastic pots with a volume of 1 quart and a surface area of 83.6 square centimeters (cm^2). When required to ensure good germination and healthy plants, a fungicide treatment and/or other chemical or physical treatment was applied. The plants were grown for 8-22 days in a greenhouse with an approximate 14 hour (h) photoperiod which was maintained at about 29° C. during the day and 26° C. during the night. Nutrients (Peters Excel® 15-5-15 5-Ca 2-Mg and iron chelate) were applied in the irrigation solution as needed and water was added on a regular basis. Supplemental lighting was provided with overhead metal halide 1000-Watt lamps as necessary. The plants were employed for testing when they reached the first through fourth true leaf stage.
as §2
Treatment requirements were calculated based upon the rates being tested, the concentration of active ingredient or acid equivalent in the formulation and a 12 milliliter (mL) application volume at a rate of 187 liters per hectare (L/ha).
as §3, §4, §5, §6, §7

LEFCH [2] = experiment: In-water applied weed control, transplanted paddy rice (greenhouse); format: in vivo, Leptochloa chinensis (L.) Nees (Chinese sprangletop)
Protocol: (§11) Weed seeds or nutlets of the desired test plant species were planted in puddled soil (mud) prepared by mixing a shredded, non-sterilized mineral soil (50.5 percent silt, 25.5 percent clay, and 24 percent sand, with a pH of about 7.6 and an organic matter content of about 2.9 percent) and water at a 1:1 volumetric ratio. The prepared mud was dispensed in 365 mL aliquots into 16-ounce (oz.) non-perforated plastic pots with a surface area of 86.59 square centimeters (cm^2) leaving a headspace of 3 centimeters (cm) in each pot. Rice seeds were planted in Sun Gro MetroMix® 306 planting mixture, which typically has a pH of 6.0 to 6.8 and an organic matter content of about 30 percent, in plastic plug trays. Seedlings at the second or third leaf stage of growth were transplanted into 860 mL of mud contained in 32-oz. non-perforated plastic pots with a surface area of 86.59 cm^2 4 days prior to herbicide application. The paddy was created by filling the headspace of the pots with 2.5 to 3 cm of water. When required to ensure good germination and healthy plants, a fungicide treatment and/or other chemical or physical treatment was applied. The plants were grown for 4-22 days in a greenhouse with an approximate 14 hour (h) photoperiod which was maintained at about 29° C. during the day and about 26° C. during the night. Nutrients were added as Osmocote® (17:6:10, N:P:K+minor nutrients) at 2 g per cup. Water was added on a regular basis to maintain the paddy flood, and supplemental lighting was provided with overhead metal halide 1000-Watt lamps as necessary. The plants were employed for testing when they reached the first through fourth true leaf stage. […]
(§12) Treatment requirements for each compound or fungicidal component were calculated based upon the rates being tested, the concentration of active ingredient or acid equivalent in the formulation, an application volume of 2 mL per component per pot, and an application area of 86.59 cm^2 per pot.
(§13) For formulated compounds, a measured amount was placed in an individual 100 or 200 mL glass vial and was dissolved in a volume of 1.25% (v/v) Agri-Dex® crop oil concentrate to obtain application solutions. […]
(§14) The treated plants and control plants were placed in a greenhouse as described above and water was added as needed to maintain a paddy flood. After approximately 3 weeks the condition of the test plants as compared with that of the untreated plants was determined visually and scored on a scale of 0 to 100 percent where 0 corresponds to no injury or growth inhibition and 100 corresponds to complete kill. […]

FIMMI = experiment: as above; format: in vivo, Fimbristylis miliacea (L.) Vahl (globe fringerush); conditions: Tricyclazole 200 g ai/ha
Protocol: as §11, §12, §13, §14

CYPRO = experiment: as above; format: in vivo, Cyperus rotundus L. (purple nutsedge)
Protocol: Weed seeds or nutlets of the desired test plant species were planted in puddled soil (mud) prepared by mixing a shredded, non-sterilized mineral soil (50.5 percent silt, 25.5 percent clay, and 24 percent sand, with a pH of about 7.6 and an organic matter content of about 2.9 percent) and water at a 1:1 volumetric ratio. The prepared mud was dispensed in 365 mL aliquots into 16-ounce (oz.) non-perforated plastic pots with a surface area of 86.59 square centimeters (cm^2) leaving a headspace of 3 centimeters (cm) in each pot. Rice seeds were planted in Sun Gro MetroMix® 306 planting mixture, which typically has a pH of 6.0 to 6.8 and an organic matter content of about 30 percent, in plastic plug trays. Seedlings at the second or third leaf stage of growth were transplanted into 860 mL of mud contained in 32-oz. non-perforated plastic pots with a surface area of 86.59 cm^2 4 days prior to herbicide application. The paddy was created by filling the headspace of the pots with 2.5 to 3 cm of water. When required to ensure good germination and healthy plants, a fungicide treatment and/or other chemical or physical treatment was applied. The plants were grown for 4-22 days in a greenhouse with an approximate 14 hour (h) photoperiod which was maintained at about 29° C. during the day and about 26° C. during the night. Nutrients were added as Osmocote® (17:6:10, N:P:K+minor nutrients) at 2 g per cup. Water was added on a regular basis to maintain the paddy flood, and supplemental lighting was provided with overhead metal halide 1000-Watt lamps as necessary. The plants were employed for testing when they reached the first through fourth true leaf stage.
Treatments consisted of the acid or esters of 4-amino-3-chloro-5-fluoro-6-(4-chloro-2-fluoro-3-methoxy-phenyl)pyridine-2-carboxylic acid (compound A) each formulated as an SC (suspension concentrate) and various fungicidal components alone and in combination. Forms of compound A were applied on an acid equivalent basis.
as §12
For formulated compounds, a measured amount was placed in an individual 100 or 200 mL glass vial and was dissolved in a volume of 1.25% (v/v) Agri-Dex® crop oil concentrate to obtain application solutions.
For technical grade compounds, a weighed amount was placed in an individual 100 to 200 mL glass vial and dissolved in a volume of acetone to obtain concentrated stock solutions.
Applications were made by injecting with a pipetter appropriate amounts of the application solutions, individually and sequentially, into the aqueous layer of the paddy. Control plants were treated in the same manner with the solvent blank. Applications were made so that all treated plant material received the same concentrations of acetone and crop oil concentrate.
The treated plants and control plants were placed in a greenhouse as described above and water was added as needed to maintain a paddy flood. After approximately 3 weeks the condition of the test plants as compared with that of the untreated plants was determined visually and scored on a scale of 0 to 100 percent where 0 corresponds to no injury or growth inhibition and 100 corresponds to complete kill.
as §9, §10

CC1OC(OC2C(O)C(O)C(O)C(O)C2O)C(N)CC1NC(=N)C(=O)O.Cl [Kasugamycin, 1L-1,3,4/2,5,6-1-deoxy-2,3,4,5,6,-pentahydroxycyclohexyl 2-amino-2,3,4,6-tetradeoxy-4-(α-iminoglycino)-α-D-arabino-hexopyranoside hydrochloride hydrate, reference compound]
0%: Visual Weed Control (%)—21 DAA CYPES Obs (CYPES) | Visual Weed Control (%)—21 DAA ECHOR Obs (ECHOR) | Visual Weed Control (%)—21 DAA CYPIR Obs (CYPIR) | Visual Weed Control (%)—21 DAA LEFCH Obs (LEFCH [1]) | Visual Weed Control (%)—21 DAA IPOHE Obs (IPOHE) | Visual Weed Control (%)—21 DAA DIGSA Obs (DIGSA)

Cc1cccc2sc3nncn3c12 [Tricyclazole, 5-methyl-1,2,4-triazolo[3,4-b][1,3]benzothiazole, reference compound]
0%: Visual Weed Control (%) - 19 DAA LEFCH Obs (LEFCH [2]; Tricyclazole 187.5 g ai/ha) | Visual Weed Control (%) - 19 DAA LEFCH Obs (LEFCH [2]; Tricyclazole 750 g ai/ha) | Visual Weed Control (%) - 22 DAA FIMMI Obs (FIMMI) | Visual Weed Control (%) - 22 DAA CYPRO Obs (CYPRO; Tricyclazole 200 g ai/ha, 22 DAA) | Visual Weed Control (%) - 19 DAA CYPRO Obs (CYPRO; Tricyclazole 375 g ai/ha) | Visual Weed Control (%) - 19 DAA CYPRO Obs (CYPRO; Tricyclazole 750 g ai/ha)
